Measurements reported in patent US20020022647A1, “2-(4-bromo or 4-iodo phenylamino) benzoic acid derivatives” (priority 1997, published 2002).

Each molecule was assayed against GST-MEK (p45MEK) and GST-MAPK (p44MAP kinase) (Homo sapiens, UniProt Q02750) (assay: Cascade assay for inhibitors of the MAP kinase pathway (In Vitro)). Settings: incorporation of 32P into myelin basic protein.
Type: biochemical
Protocol: Cascade Assay for Inhibitors of the MAP Kinase Pathway
Incorporation of ^32P into myelin basic protein (MBP) was assayed in the presence of a glutathione S-transferase fusion protein containing p44MAP kinase (GST-MAPK) and a glutathione S-transferase fusion protein containing p45MEK (GST-MEK). The assay solution contained 20 mM HEPES, pH 7.4, 10 mM MgCl2, 1 mM MnCl2, 1 mM EGTA, 50 μM [γ-^32P]ATP, 10 μg GST-MEK0.5 μg GST-MAPK and 40 μg MBP in a final volume of 100 μL. Reactions were stopped after 20 minutes by addition of trichloroacetic acid and filtered through a GF/C filter mat. ^32P retained on the filter mat was determined using a 1205 Betaplate. Compounds were assessed at 10 μM for ability to inhibit incorporation of ^32P.
To ascertain whether compounds were inhibiting GST-MEK or GST MAPK, two additional protocols were employed. In the first protocol, compounds were added to tubes containing GST-MEK, followed by addition of GST-MAPK, MBP and [γ-^32P]ATP. In the second protocol, compounds were added to tubes containing both GST-MEK and GST-MAPK, followed by MBP and [γ-^32P]ATP.

Sequence of GST-MEK (p45MEK) and GST-MAPK (p44MAP kinase) (Q02750 whole entry): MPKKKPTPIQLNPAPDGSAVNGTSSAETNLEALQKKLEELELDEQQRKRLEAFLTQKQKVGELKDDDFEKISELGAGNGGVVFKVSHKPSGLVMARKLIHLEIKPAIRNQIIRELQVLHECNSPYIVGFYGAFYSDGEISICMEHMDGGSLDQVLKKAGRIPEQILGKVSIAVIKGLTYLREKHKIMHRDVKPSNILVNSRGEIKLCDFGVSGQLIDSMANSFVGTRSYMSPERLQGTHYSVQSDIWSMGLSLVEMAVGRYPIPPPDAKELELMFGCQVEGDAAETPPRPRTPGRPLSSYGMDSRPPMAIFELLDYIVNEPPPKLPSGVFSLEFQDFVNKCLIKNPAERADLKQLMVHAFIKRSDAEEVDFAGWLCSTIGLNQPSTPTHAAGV

| SMILES | IC50 [nM] |
| --- | --- |
| Cc1cc(I)ccc1Nc1cc(F)ccc1C(=O)O [Example 1, 4-Fluoro-2-(4-iodo-2-methylphenylamino)benzoic acid] | 19 |
| Cc1cc(I)ccc1Nc1ccc(Cl)cc1C(=O)O [Example 6, 5-Chloro-2-(4-iodo-2-methyl-phenylamino)-benzoic acid] | 71 |
| Cc1cc(I)ccc1Nc1ccc(Cl)cc1C(=O)[O-].[Na+] [Example 7, Sodium 5-Chloro-2-(4-iodo-2-methyl-phenylamino)-benzoate] | 72 |
| O=C(O)c1cc([N+](=O)[O-])ccc1Nc1ccc(I)cc1Cl [Example 9, 2-(2-Chloro-4-iodo-phenylamino)-5-nitro-benzoic acid] | 97 |
| Cc1c(Nc2cc(F)ccc2C(=O)O)ccc(I)c1F [Example 10, 4-Fluoro-2-(3-fluoro-4-iodo-2-methyl-phenylamino)-benzoic acid] | 101 |
| Cc1cc(I)ccc1Nc1ccc([N+](=O)[O-])cc1C(=O)O [Example 11, 2-(4-Iodo-2-methyl-phenylamino)-5-nitro-benzoic acid] | 128 |
| O=C(O)c1cc([N+](=O)[O-])ccc1Nc1ccc(I)cc1F [Example 12, 2-(2-Fluoro-4-iodo-phenylamino)-5-nitro-benzoic acid] | 135 |
| Cc1cc(Br)ccc1Nc1cc(F)ccc1C(=O)O [Example 13, 2-(4-Bromo-2-methyl-phenylamino)-4-fluoro-benzoic acid] | 178 |
| O=C(O)c1cc([N+](=O)[O-])ccc1Nc1ccc(I)cc1Br [Example 14, 2-(2-Bromo-4-iodo-phenylamino)-5-nitro-benzoic acid] | 179 |
| Cc1cc(Br)ccc1Nc1c(C(=O)O)ccc(F)c1F [Example 15, 2-(4-Bromo-2-methyl-phenylamino)-3,4-difluoro-benzoic acid] | 194 |
| Cc1c(Nc2cc(F)ccc2C(=O)O)ccc(I)c1Cl [Example 23, 4-Fluoro-2-(3-chloro-4-iodo-2-methyl-phenylamino) benzoic acid] | 1588 |
| COc1ccc(Nc2ccc(I)cc2)c(C(=O)O)c1 [Example 24, 2-(4-Iodo-phenylamino)-5-methoxy-benzoic acid] | 1944 |
| Cc1cc(I)ccc1Nc1cccc(F)c1C(=O)O [Example 26, 2-Fluoro-6-(4-iodo-2-methyl-phenylamino)-benzoic acid] | 2609 |
| Cc1ccc(Nc2ccc(I)cc2C)c(C(=O)O)c1 [Example 28, 5-Methyl-2-(4-iodo-2-methyl-phenylamino)-benzoic acid] | 3670 |
| Cc1cc(I)ccc1Nc1cccc(Cl)c1C(=O)O [Example 29, 2-Chloro-6-(4-iodo-2-methyl-phenylamino)-benzoic acid] | 5331 |
| CCNC(=O)c1ccc(F)cc1Nc1ccc(I)cc1C [Example 35, N-Ethyl-4-fluoro-2-(4-iodo-2-methyl-phenylamino)-benzamide] | 121 |
| Cc1cc(I)ccc1Nc1cc(F)ccc1C(=O)Nc1nnn[nH]1 [Example 37, 4-Fluoro-2-(4-iodo-2-methyl-phenylamino)-N-(1H-tetrazol-5-yl)-benzamide] | 237 |
| Cc1cc(I)ccc1Nc1ccc(Br)cc1C(N)=O [Example 38, 5-Bromo-2-(4-iodo-2-methyl-phenylamino)-benzamide] | 412 |
| CCCNC(=O)c1ccc(F)cc1Nc1ccc(I)cc1C [Example 41, 4-Fluoro-2-(4-iodo-2-methyl-phenylamino)-N-propyl-benzamide] | 872 |
| Cc1cc(I)ccc1Nc1ccc(Br)cc1C(=O)NCCO [Example 42, 5-Bromo-N-(2-hydroxy-ethyl)-2-(4-iodo-2-methyl-phenylamino)-benzamide] | 920 |
| Cc1cc(I)ccc1Nc1cc(F)ccc1C(=O)NCCCN1CCN(CCO)CC1 [Example 44, 4-Fluoro-N-{3-[4-(2-hydroxy-ethyl)-piperazin-1-yl]-propyl}-2-(4-iodo-2-methyl-phenylamino)-benzamide] | 1481 |
| CCN(CC)C(=O)c1cc([N+](=O)[O-])ccc1Nc1ccc(I)cc1C [Example 45, N,N-Diethyl-2-(4-iodo-2-methyl-phenylamino)-5-nitro-benzamide] | 1755 |
| CCCCNC(=O)c1ccc(F)cc1Nc1ccc(I)cc1C [Example 46, N-Butyl-4-fluoro-2-(4-iodo-2-methyl-phenylamino)-benzamide] | 1814 |
| Cc1cc(I)ccc1Nc1ccc([N+](=O)[O-])cc1CO [Example 51, [2-(4-Iodo-2-methyl-phenylamino)-5-nitro-phenyl]-methanol] | 887 |
| Cc1cc(I)ccc1Nc1ccc(Br)cc1CO [Example 52, [5-Bromo-2-(4-iodo-2-methyl-phenylamino)-phenyl]-methanol] | 2346 |
| Cc1cc(I)ccc1Nc1c(C(=O)NCC(O)CO)ccc(F)c1F (stereo not shown) [Example 54, N-(2,3-Dihydroxy-propyl)-3,4-difluoro-2-(4-iodo-2-methyl-phenylamino)-benzamide] | 158 |
| Cc1cc(I)ccc1Nc1c(C(=O)NCCN2CCCCC2)cc(Br)c(F)c1F [Example 55, 5-Bromo-3,4-difluoro-2-(4-iodo-2-methyl-phenylamino)-N-(2-piperidin-1-yl-ethyl)-benzamide] | 114 |
| Cc1cc(I)ccc1Nc1cc(F)ccc1C(=O)NCC(O)CO (stereo not shown) [Example 57, N-(2,3-Dihydroxy-propyl)-4-fluoro-2-(4-iodo-2-methyl-phenylamino)-benzamide] | 399 |
| Cc1cc(I)ccc1Nc1ccc(F)cc1C(=O)NCCCN1CCN(CCO)CC1 [Example 90, 5-Fluoro-N-{3-[4-(2-hydroxy-ethyl)-piperazin-1-yl]-propyl}-2-(4-iodo-2-methyl-phenylamino)-benzamide] | 604 |

Other lines, results leading:

| IC50 [nM] | SMILES |
| --- | --- |
| 14 | Cc1cc(I)ccc1Nc1c(C(=O)O)cc(F)c(F)c1F [Example 2, 3,4,5-Trifluoro-2-(4-iodo-2-methyl-phenylamino)-benzoic acid] |
| 11.1 | Cc1cc(I)ccc1Nc1c(C(=O)O)ccc(F)c1F [Example 3, 3,4-Difluoro-2-(4-iodo-2-methyl-phenylamino)-benzoic acid] |
| 5 | Cc1cc(I)ccc1Nc1c(C(=O)O)cc(Br)c(F)c1F [Example 4, 5-Bromo-3,4-difluoro-2-(4-iodo-2-methyl-phenylamino)-benzoic acid] |
| 66 | O=C(O)c1cc(Cl)ccc1Nc1ccc(I)cc1Cl [Example 5, 5-Chloro-2-(2-chloro-4-iodo-phenylamino)--benzoic acid] |
| 86 | Cc1cc(I)ccc1Nc1ccc(Br)cc1C(=O)O [Example 8, 5-Bromo-2-(4-iodo-2-methyl-phenylamino)-benzoic acid] |
| 323 | Cc1cc(I)ccc1Nc1c(F)cccc1C(=O)O [Example 16, 3-Fluoro-2-(4-iodo-2-methyl-phenylamino)-benzoic acid] |
| 434 | COc1cc(I)ccc1Nc1c(C(=O)O)ccc(F)c1F [Example 17, 3,4-Difluoro-2-(4-iodo-2-methoxy-phenylamino)-benzoic acid] |
| 446 | Cc1cc(I)ccc1Nc1cc(Cl)ccc1C(=O)O [Example 18, 4-Chloro-2-(4-iodo-2-methyl-phenylamino)-benzoic acid] |
| 524 | Cc1cc(I)ccc1Nc1ccccc1C(=O)O [Example 19, 2-(4-Iodo-2-methyl-phenylamino)-benzoic acid] |
| 557 | Cc1cc(I)ccc1Nc1ccc(F)cc1C(=O)O [Example 20, 5-Fluoro-2-(4-iodo-2-methyl-phenylamino)-benzoic acid] |
| 569 | Cc1cc(I)ccc1Nc1ccc(I)cc1C(=O)O [Example 21, 5-Iodo-2-(4-iodo-2-methyl-phenylamino)-benzoic acid] |
| 1581 | Cc1cc(I)ccc1Nc1c(F)cc(C(=O)O)c(F)c1F [Example 22, 2,3,5-Trifluoro-4-(4-iodo-2-methyl-phenylamino)-benzoic acid] |
| 2363 | O=C(O)c1cccc(Cl)c1Nc1ccc(I)cc1Cl [Example 25, 3-Chloro-2-(2-chloro-4-iodo-phenylamino)-benzoic acid] |
| 28 | COc1ccc(NC(=O)c2ccc(OC)c([N+](=O)[O-])c2)cc1 [Example 32, 4-Methoxy-N-(4-methoxy-phenyl)-3-nitro-benzamide] |
| 52 | Cc1cc(I)ccc1Nc1cc(F)ccc1C(N)=O [Example 33, 4-Fluoro-2-(4-iodo-2-methyl-phenylamino)-benzaniide] |
| 98 | CNC(=O)c1ccc(F)cc1Nc1ccc(I)cc1C [Example 34] |
| 129 | Cc1cc(I)ccc1Nc1cc(F)ccc1C(=O)N(C)C [Example 36, 4-Fluoro-2-(4-iodo-2-methyl-phenylamino)-N,N-dimethyl-benzamide] |
| 497 | Cc1cc(I)ccc1Nc1ccc(Cl)cc1C(=O)N(C)C [Example 39, 5-Chloro-2-(4-iodo-2-methyl-phenylamino)-N,N-dimethyl-benzamide] |
| 1911 | CCN(CC)C(=O)c1cc(Cl)ccc1Nc1ccc(I)cc1C [Example 47, 5-Chloro-N,N-diethyl-2-(4-iodo-2-methyl-phenylamino)-benzamide] |
| 1945 | Cc1cc(I)ccc1Nc1ccc(Br)cc1C(=O)N(C)C [Example 48] |
